The substances below were run on PBMCs (assay: In vitro peptide stimulation of porcine PBMCs, IFN-γ release assay (ELISA)). Settings: not given.
Assay type: cell-based, pig
Design: key to T cell response: “x” indicates that a response was found to this given peptide at least once

Substance | IFN-γ in positive control cultures [pg/mL]
Staphylococcal Enterotoxin B [SEB, reference compound] | > 70

Same assay, conditions: PBMCs of immunized pigs, 2 × 10^5/well, 5 μg/ml peptide, 67.5–70.0 h, IFN-γ ELISA; response = 2-fold increase vs day -2 and at least 25 pg/ml IFN-γ, found at least once; SLA restriction not included

Substance | T cell response
AGFLQEMRTY [IDO1, porcine IDO-derived 9-11mer peptide] | x
FALPNPLEEL [IDO22, porcine IDO-derived 9-11mer peptide] | x
FNAIQCEDL [IDO26, porcine IDO-derived 9-11mer peptide] | x
FNVLRIYLSGW [IDO29, porcine IDO-derived 9-11mer peptide] | x
LGYITMAYVW [IDO66, porcine IDO-derived 9-11mer peptide] | x
LSEGLLYEGVW [IDO71, porcine IDO-derived 9-11mer peptide] | x
MDNSWKIFEEY [IDO76, porcine IDO-derived 9-11mer peptide] | x
TYMPPAHRNF [IDO124, porcine IDO-derived 9-11mer peptide] | x
VDGKQVELALW [RhoC52, porcine RhoC-derived 9-11mer peptide] | x

These substances were tested on SLA-2*04:01 (assay: Peptide-MHC class I complex stability, scintillation proximity assay (SPA)). Settings: biotinylated recombinant SLA heavy chain, 125I-β2m, excess unlabeled β2m, read every 40 min, number only if t1/2 ≥ 0.5 h, '-' = not stably binding.
Design: species or system pig
Method: (§1) The stability of the selected 198 peptides in complex with relevant SLA class I molecules and β2m was determined using a scintillation proximity assay (SPA), as previously described (Harndahl et al., [2011]). Briefly, biotinylated recombinant MHC class I heavy chains were attached to a streptavidin-coated scintillation microplate together with iodinated (^125I) β2m and candidate peptide resulting in a scintillation signal, which was consecutively measured every 40 min by a scintillation plate counter. The duration of this signal is directly correlated to the stability of the peptide-MHC class I-β2m complex under dissociating conditions and in the presence of excess unlabeled β2m (Harndahl et al., [2011]). Peptides with a half-life ≥ 0.5 h were selected as stable binders.

Substance | Binder (t1/2 ≥ 0.5 h): half-life of peptide-SLA-2*04:01 complex
AGFLQEMRTY [IDO1, porcine IDO-derived 9-11mer peptide] | 0.6 h
DNSWKIFEEY [IDO11, porcine IDO-derived 9-11mer peptide] | - (t1/2 (hours) is listed for each of the stably binding peptides (t1/2 ≥ 0.5 h))
DSLENIPEKW [RhoC9, porcine RhoC-derived 9-11mer peptide] | - (t1/2 (hours) is listed for each of the stably binding peptides (t1/2 ≥ 0.5 h))
DWWSPMDNSW [IDO13, porcine IDO-derived 9-11mer peptide] | - (t1/2 (hours) is listed for each of the stably binding peptides (t1/2 ≥ 0.5 h))
EKLGLPPILVY [IDO17, porcine IDO-derived 9-11mer peptide] | - (t1/2 (hours) is listed for each of the stably binding peptides (t1/2 ≥ 0.5 h))
ENYIADIEVD [RhoC19, porcine RhoC-derived 9-11mer peptide] | - (t1/2 (hours) is listed for each of the stably binding peptides (t1/2 ≥ 0.5 h))
FALPNPLEEL [IDO22, porcine IDO-derived 9-11mer peptide] | 0.5 h
FNAIQCEDL [IDO26, porcine IDO-derived 9-11mer peptide] | 0.6 h
FNVLRIYLSGW [IDO29, porcine IDO-derived 9-11mer peptide] | 33.6 h
FSKDQFPEVY [RhoC26, porcine RhoC-derived 9-11mer peptide] | - (t1/2 (hours) is listed for each of the stably binding peptides (t1/2 ≥ 0.5 h))
LDWWSPMDNSW [IDO64, porcine IDO-derived 9-11mer peptide] | - (t1/2 (hours) is listed for each of the stably binding peptides (t1/2 ≥ 0.5 h))
LGYITMAYVW [IDO66, porcine IDO-derived 9-11mer peptide] | 4.9 h
LSEGLLYEGVW [IDO71, porcine IDO-derived 9-11mer peptide] | 4.4 h
LVYADCVLANW [IDO74, porcine IDO-derived 9-11mer peptide] | - (t1/2 (hours) is listed for each of the stably binding peptides (t1/2 ≥ 0.5 h))
MDNSWKIFEEY [IDO76, porcine IDO-derived 9-11mer peptide] | 1.9 h
NSWKIFEEYH [IDO90, porcine IDO-derived 9-11mer peptide] | - (t1/2 (hours) is listed for each of the stably binding peptides (t1/2 ≥ 0.5 h))
NYHLQIVTKY [IDO93, porcine IDO-derived 9-11mer peptide] | - (t1/2 (hours) is listed for each of the stably binding peptides (t1/2 ≥ 0.5 h))
SSLHKALEVF [IDO121, porcine IDO-derived 9-11mer peptide] | - (t1/2 (hours) is listed for each of the stably binding peptides (t1/2 ≥ 0.5 h))
TYMPPAHRNF [IDO124, porcine IDO-derived 9-11mer peptide] | 4.7 h
VDGKQVELALW [RhoC52, porcine RhoC-derived 9-11mer peptide] | 0.5 h
VFSKDQFPEVY [RhoC53, porcine RhoC-derived 9-11mer peptide] | - (t1/2 (hours) is listed for each of the stably binding peptides (t1/2 ≥ 0.5 h))
WDTAGQEDY [RhoC55, porcine RhoC-derived 9-11mer peptide] | - (t1/2 (hours) is listed for each of the stably binding peptides (t1/2 ≥ 0.5 h))
WWSPMDNSW [IDO132, porcine IDO-derived 9-11mer peptide] | - (t1/2 (hours) is listed for each of the stably binding peptides (t1/2 ≥ 0.5 h))

The substances below were run on SLA-3*04:01 in the same assay as above. Settings: biotinylated recombinant SLA heavy chain, 125I-β2m, excess unlabeled β2m, read every 40 min, number only if t1/2 ≥ 0.5 h, '-' = not stably binding.
Design: species or system pig
Method: as §1

Substance | Binder (t1/2 ≥ 0.5 h): half-life of peptide-SLA-3*04:01 complex
ANRISAFGYL [RhoC3, porcine RhoC-derived 9-11mer peptide] | - (t1/2 (hours) is listed for each of the stably binding peptides (t1/2 ≥ 0.5 h))
ANRISAFGYLE [RhoC4, porcine RhoC-derived 9-11mer peptide] | - (t1/2 (hours) is listed for each of the stably binding peptides (t1/2 ≥ 0.5 h))
ANWKKKDPS [IDO6, porcine IDO-derived 9-11mer peptide] | - (t1/2 (hours) is listed for each of the stably binding peptides (t1/2 ≥ 0.5 h))
FNVLRIYLS [IDO27, porcine IDO-derived 9-11mer peptide] | - (t1/2 (hours) is listed for each of the stably binding peptides (t1/2 ≥ 0.5 h))
FNVLRIYLSG [IDO28, porcine IDO-derived 9-11mer peptide] | - (t1/2 (hours) is listed for each of the stably binding peptides (t1/2 ≥ 0.5 h))
HKMQRLAHLVL [IDO37, porcine IDO-derived 9-11mer peptide] | - (t1/2 (hours) is listed for each of the stably binding peptides (t1/2 ≥ 0.5 h))
KALLDITSSL [IDO46, porcine IDO-derived 9-11mer peptide] | - (t1/2 (hours) is listed for each of the stably binding peptides (t1/2 ≥ 0.5 h))
KDPSGPMTY [IDO47, porcine IDO-derived 9-11mer peptide] | - (t1/2 (hours) is listed for each of the stably binding peptides (t1/2 ≥ 0.5 h))
KEGVREVFEM [RhoC27, porcine RhoC-derived 9-11mer peptide] | - (t1/2 (hours) is listed for each of the stably binding peptides (t1/2 ≥ 0.5 h))
KGFFLVSLLV [IDO50, porcine IDO-derived 9-11mer peptide] | - (t1/2 (hours) is listed for each of the stably binding peptides (t1/2 ≥ 0.5 h))
KHFCPNVPI [RhoC28, porcine RhoC-derived 9-11mer peptide] | - (t1/2 (hours) is listed for each of the stably binding peptides (t1/2 ≥ 0.5 h))
KHFCPNVPII [RhoC29, porcine RhoC-derived 9-11mer peptide] | - (t1/2 (hours) is listed for each of the stably binding peptides (t1/2 ≥ 0.5 h))
KHFCPNVPIIL [RhoC30, porcine RhoC-derived 9-11mer peptide] | - (t1/2 (hours) is listed for each of the stably binding peptides (t1/2 ≥ 0.5 h))
KLFFNVLRI [IDO52, porcine IDO-derived 9-11mer peptide] | - (t1/2 (hours) is listed for each of the stably binding peptides (t1/2 ≥ 0.5 h))
KLFFNVLRIYL [IDO54, porcine IDO-derived 9-11mer peptide] | - (t1/2 (hours) is listed for each of the stably binding peptides (t1/2 ≥ 0.5 h))
KMQRLAHLVL [IDO57, porcine IDO-derived 9-11mer peptide] | - (t1/2 (hours) is listed for each of the stably binding peptides (t1/2 ≥ 0.5 h))
KNKRRRGCPIL [RhoC32, porcine RhoC-derived 9-11mer peptide] | - (t1/2 (hours) is listed for each of the stably binding peptides (t1/2 ≥ 0.5 h))
KNMDILFSFPG [IDO59, porcine IDO-derived 9-11mer peptide] | - (t1/2 (hours) is listed for each of the stably binding peptides (t1/2 ≥ 0.5 h))
KRRRGCPIL [RhoC33, porcine RhoC-derived 9-11mer peptide] | - (t1/2 (hours) is listed for each of the stably binding peptides (t1/2 ≥ 0.5 h))
KTKEGVREVF [RhoC34, porcine RhoC-derived 9-11mer peptide] | - (t1/2 (hours) is listed for each of the stably binding peptides (t1/2 ≥ 0.5 h))
KTVRGTTVRSL [IDO60, porcine IDO-derived 9-11mer peptide] | - (t1/2 (hours) is listed for each of the stably binding peptides (t1/2 ≥ 0.5 h))
MQRLAHLVL [IDO78, porcine IDO-derived 9-11mer peptide] | - (t1/2 (hours) is listed for each of the stably binding peptides (t1/2 ≥ 0.5 h))
MTYKNMDILFS [IDO82, porcine IDO-derived 9-11mer peptide] | - (t1/2 (hours) is listed for each of the stably binding peptides (t1/2 ≥ 0.5 h))
NKRRRGCPI [RhoC41, porcine RhoC-derived 9-11mer peptide] | - (t1/2 (hours) is listed for each of the stably binding peptides (t1/2 ≥ 0.5 h))

Reference: publication PMC4584933, “Establishing the pig as a large animal model for vaccine development against human cancer” (Frontiers in Genetics, 2015)
